Laboratory results as given in ChEMBL document CHEMBL5137136, “A Cytotoxic Heterodimeric Cyclic Diarylheptanoid with a Rearranged Benzene Ring from the Seagrass Zostera marina” (J Nat Prod, 2022).
Active and inactive are the calls of the source. The calls are words filed in the database; no cut-off is given here.

Tests used:
HCT-116 [1] = experiment: Induction of morphological changes in human HCT-116 cells at 10 uM incubated for 48 hrs by phase contrast microscopy analysis; type: functional, cell-based
HCT-116 [2] = experiment: Cytotoxicity against human HCT-116 cells assessed as reduction in cell viability incubated for 48 hrs by MTT assay; type: functional, cell-based; conditions: HCT-116, 48 h
HCT-116 [3] = experiment: Cytotoxicity against human HCT-116 cells assessed as cell growth inhibition at 10 uM incubated for 48 hrs by MTT assay relative to control; type: functional
HCT-116 [4] = experiment: Cytotoxicity against human HCT-116 cells assessed as reduction in cell viability at 10 uM incubated for 48 hrs by MTT assay relative to control; type: functional

SMILES	Activity (HCT-116 [1])	IC50 (HCT-116 [2])	inhibition at 10 µM (HCT-116 [3])	Activity (HCT-116 [4])
COc1cc2c3c(c1O)-c1cc(ccc1O)CC/C=C\[C@@H]3C([C@@H]1C3=CC(=O)[C@]14C(=O)Oc1ccc(cc14)CC/C=C\C=C\C3)=C2	Active	7.6 µM	73%	–
COc1cc(O)c2cc1CC/C=C\C=C\CC1=C(O)C(=O)C=C(O2)[C@H]1C1=Cc2cc(OC)c(O)c3c2[C@@H]1/C=C\CCc1ccc(O)c-3c1	–	3.6 µM	–	97%
COc1cc2c3c(c1O)-c1cc(ccc1O)CC/C=C\[C@@H]3C([C@@H]1C3=CC(=O)[C@@]4(O)Oc5ccc(cc5[C@@H]14)CC/C=C\C=C\C3)=C2	–	–	23%	–
